# Data: BindingDB's records for patent US20240101531 (Xenon Pharmaceuticals, 2024)
# pEC50: −log10 of the molar value.
# Target: Potassium voltage-gated channel subfamily KQT member 2/3 (Homo sapiens, UniProt O43525+O43526)
# Test: In Vitro Assay
# Description: This potassium flux assay employs the cell-permeable, potassium-sensitive dye, IPG-2 AM, to quantify potassium ion flux through potassium channels.In general, TREX HEK 293 or HEK 293 cells were stably transfected with either an inducible or non-inducible expression vector containing the full-length cDNA coding for the desired human KV7.2/KV7.3 or in combination with another full-length cDNA for a second desired human KV7 potassium channel. Potassium channel-expressing cell lines were induced with tetracycline (1 g/mL), if required, and plated on 384-well poly-D-lysine (PDL)-coated plates in culture media (DMEM, containing 10% FBS and 1% L-glutamine). After overnight incubation, culture media was removed and cells were loaded with 5 M IPG-2 AM dye for 1 hour in Assay buffer (140 mM NaCl, 20 mM RbCl, 2 mM CaCl2, 1 mM MgCl2, 10 mM HEPES (4-(2-hydroxyethyl)-1-piperazineethanesulfonic acid buffer), 10 mM glucose, adjusted with Tris to pH 7.4). Excess dye was removed, and cells incubated at room temperature for 20 minutes with or without test compound. […]
# Potassium voltage-gated channel subfamily KQT member 2/3, sequence (O43526 whole entry): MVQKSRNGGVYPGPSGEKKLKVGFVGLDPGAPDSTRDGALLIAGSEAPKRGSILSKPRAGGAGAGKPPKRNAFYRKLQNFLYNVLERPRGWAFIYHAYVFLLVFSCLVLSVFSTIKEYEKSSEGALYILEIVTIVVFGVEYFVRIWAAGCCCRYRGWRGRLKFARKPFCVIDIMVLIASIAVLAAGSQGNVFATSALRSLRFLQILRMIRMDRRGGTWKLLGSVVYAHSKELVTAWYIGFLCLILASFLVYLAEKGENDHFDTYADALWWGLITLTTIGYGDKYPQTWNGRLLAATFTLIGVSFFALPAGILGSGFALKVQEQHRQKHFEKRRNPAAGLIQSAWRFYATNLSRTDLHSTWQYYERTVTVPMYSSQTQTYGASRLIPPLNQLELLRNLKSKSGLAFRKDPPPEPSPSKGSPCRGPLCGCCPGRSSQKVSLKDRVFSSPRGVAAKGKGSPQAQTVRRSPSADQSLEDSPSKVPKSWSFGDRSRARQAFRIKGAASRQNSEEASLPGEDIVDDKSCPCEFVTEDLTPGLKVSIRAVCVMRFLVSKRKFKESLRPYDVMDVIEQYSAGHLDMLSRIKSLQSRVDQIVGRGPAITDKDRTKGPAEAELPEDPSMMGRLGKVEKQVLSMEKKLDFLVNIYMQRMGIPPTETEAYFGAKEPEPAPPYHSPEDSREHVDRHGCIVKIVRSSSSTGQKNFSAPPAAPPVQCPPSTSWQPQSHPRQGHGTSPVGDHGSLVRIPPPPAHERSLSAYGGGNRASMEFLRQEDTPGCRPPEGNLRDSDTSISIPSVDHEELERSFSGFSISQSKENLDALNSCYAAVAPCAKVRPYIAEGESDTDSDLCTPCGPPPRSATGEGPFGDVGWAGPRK
# Potassium voltage-gated channel subfamily KQT member 2/3, sequence (O43525 whole entry): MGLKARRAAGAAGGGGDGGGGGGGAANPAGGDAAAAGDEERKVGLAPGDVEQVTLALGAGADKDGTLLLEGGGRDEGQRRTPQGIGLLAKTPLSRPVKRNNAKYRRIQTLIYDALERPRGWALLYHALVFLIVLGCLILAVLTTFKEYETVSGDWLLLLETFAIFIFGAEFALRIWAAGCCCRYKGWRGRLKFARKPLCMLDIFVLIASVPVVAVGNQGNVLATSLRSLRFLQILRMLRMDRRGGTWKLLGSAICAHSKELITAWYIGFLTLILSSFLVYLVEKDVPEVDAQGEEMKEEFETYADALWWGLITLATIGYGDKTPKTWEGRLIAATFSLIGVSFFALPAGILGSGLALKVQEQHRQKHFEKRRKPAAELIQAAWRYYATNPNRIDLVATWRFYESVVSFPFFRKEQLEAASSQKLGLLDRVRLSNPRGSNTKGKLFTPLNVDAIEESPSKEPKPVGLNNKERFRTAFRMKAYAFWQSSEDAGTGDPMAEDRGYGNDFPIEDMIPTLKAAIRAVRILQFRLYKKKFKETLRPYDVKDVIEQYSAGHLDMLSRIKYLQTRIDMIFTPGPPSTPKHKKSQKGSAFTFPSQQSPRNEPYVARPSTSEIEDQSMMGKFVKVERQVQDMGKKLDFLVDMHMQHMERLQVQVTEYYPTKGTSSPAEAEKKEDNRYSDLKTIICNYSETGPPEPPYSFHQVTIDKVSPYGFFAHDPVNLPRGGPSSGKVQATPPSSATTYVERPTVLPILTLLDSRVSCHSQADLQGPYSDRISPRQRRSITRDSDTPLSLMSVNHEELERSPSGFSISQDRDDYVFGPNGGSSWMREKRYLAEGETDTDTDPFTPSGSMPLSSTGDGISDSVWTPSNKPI
compound,measurement,value
"CC1(C)CC1(C#N)COc1ccc2c(Nc3ccc(Cl)nc3)nccc2c1 (stereo unspecified) [US20240101531, Example 330]",pEC50,> 6.00
